Among the data in ChEMBL document CHEMBL3352575, “Synthesis, in vitro and in vivo antitumor activity of pyrazole-fused 23-hydroxybetulinic acid derivatives” (Bioorg Med Chem Lett, 2015) are inhibition in vivo and IC50 values, retold here.

By IC50 is commonly meant the concentration at which inhibition is half-maximal. Read a high IC50 as lower potency.

The test system of test [1] is H22. The test can be described thus: Antitumor activity against human H22 cells xenografted in ICR mouse assessed as tumor growth inhibition at 30 mg/kg, iv administered 7 days post inoculation measured at day 25 of tumor transplantation. Conditions: read-out: INH. A general note: Xenograft models place foreign cells or tissue in a host animal.
Test [2] relates to H22. The test can be described thus: Antitumor activity against […] H22 cells […] in ICR mouse assessed as tumor growth inhibition at 30 mg/kg, ip administered 7 days post inoculation measured at day 25 of tumor transplantation. In kind it is functional. The note with it: route intraperitoneal.
The test system of test [3] is B16. Description: Antiproliferative activity against mouse B16 cells after 72 hrs by MTT assay. Conditions: B16, 72 h. It is filed as functional, cell-based.
In another test the test system is HeLa. Description: Antiproliferative activity against human HeLa cells after 72 hrs by MTT assay. It is filed as functional, cell-based. A general note: Formazan colour is commonly taken as a measure of viable cells.
Test [4] can be described thus: Antiproliferative activity against human SF763 cells after 72 hrs by MTT assay. In kind it is functional, cell-based. The note with it: SF763, 72 h.
The nature of test [5]: Antiproliferative activity against human HL60 cells after 72 hrs by MTT assay. It is filed as functional, cell-based. Conditions: HL-60, 72 h.
A short description of test [6]: Antiproliferative activity against human Bel7402 cells after 72 hrs by MTT assay. It is filed as functional, cell-based. Conditions: Bel-7402, 72 h.
Test [7] has as its system B16. Description: Antitumor activity against mouse B16 cells allografted in ICR mouse assessed as tumor growth inhibition at 30 mg/kg, ip administered 7 days post inoculation measured at day 25 of tumor transplantation. It is filed as functional. The note with it: route intraperitoneal.
The subject of test [8] is B16. The test can be described thus: Antitumor activity against mouse B16 cells allografted in ICR mouse assessed as tumor growth inhibition at 30 mg/kg, iv administered 7 days post inoculation measured at day 25 of tumor transplantation. In kind it is functional.

As to `O=P1(N(CCCl)CCCl)NCCCO1` (stereo unspecified) [CYCLOPHOSPHAMIDE ANHYDROUS], in the test with H22 [1], the inhibition in vivo at 30 mg/kg was found to be 53.7%.

Consider `C=C(C)[C@@H]1CC[C@]2(C(=O)NCCN)CC[C@]3(C)[C@H](CC[C@@H]4[C@@]5(C)Cc6c[nH]nc6[C@@](C)(COC(C)=O)[C@@H]5CC[C@]43C)[C@@H]12`, for which the values for the inhibition in vivo at 30 mg/kg with H22 [2] and with B16 [7] were 51.2% and 58.9%, respectively. Further, the IC50 came to 5.58 µM with B16 [3]; 8.97 µM in the test with HeLa; 6.13 µM in test [4]; 8.04 µM in test [5]; 8.12 µM in test [6].

Regarding `O=c1[nH]cc(F)c(=O)[nH]1` [FLUOROURACIL], the IC50 in the test with B16 [3] came to 10.5 µM; in the test with HeLa, 9.09 µM; in test [4] it was 9.34 µM; in test [5], 10.5 µM; in test [6], 11.8 µM. Further, in the test on B16 [8], the inhibition in vivo at 30 mg/kg stood at 70.3%.

Regarding `C=C(C)[C@@H]1CC[C@]2(C(=O)NCC(=O)O)CC[C@]3(C)[C@H](CC[C@@H]4[C@@]5(C)Cc6c[nH]nc6[C@@](C)(CO)[C@@H]5CC[C@]43C)[C@@H]12`, the IC50 came out at 30.8 µM in the test on B16 [3]; 32.7 µM in the test with HeLa; 27.4 µM in test [4]; 34.9 µM in test [5]; 36.1 µM in test [6].

Regarding `C=C(C)[C@@H]1CC[C@]2(C(=O)O)CC[C@]3(C)[C@H](CC[C@@H]4[C@@]5(C)Cc6cn(CC(=O)OCC)nc6[C@@](C)(CO)[C@@H]5CC[C@]43C)[C@@H]12`, the IC50 in the test on B16 [3] was determined as 29.4 µM; in the test on HeLa, 47.2 µM; in test [4], 35.9 µM; in test [5], 49.8 µM; in [6], 40.6 µM.

Turning to `C=C(C)[C@@H]1CC[C@]2(C(=O)OCC)CC[C@]3(C)[C@H](CC[C@@H]4[C@@]5(C)Cc6cn(C(C)=O)nc6[C@@](C)(COC(C)=O)[C@@H]5CC[C@]43C)[C@@H]12`, the IC50 in the test with B16 [3] was 30.2 µM; in the test on HeLa it was 32.6 µM; in test [4] it was 29.4 µM; in test [5], 40.2 µM; in [6] it was 33.7 µM.

With `C=CCOC(=O)[C@]12CC[C@@H](C(=C)C)[C@@H]1[C@H]1CC[C@@H]3[C@@]4(C)Cc5c[nH]nc5[C@@](C)(CO)[C@@H]4CC[C@@]3(C)[C@]1(C)CC2`, the IC50 in the test with B16 [3] amounted to 18 µM; in the test on HeLa, 19.5 µM; in test [4] it was 18.7 µM; in [5], 24.3 µM; in [6] it was 17.8 µM.

In the case of `C=C(C)[C@@H]1CC[C@]2(C(=O)O)CC[C@]3(C)[C@H](CC[C@@H]4[C@@]5(C)CC[C@H](O)[C@@](C)(CO)[C@@H]5CC[C@]43C)[C@@H]12`, the results for the inhibition in vivo at 30 mg/kg with H22 [2] and in the test on B16 [7] were 27.8% and 32.4%, respectively.

As to `C=C(C)[C@@H]1CC[C@]2(C(=O)O)CC[C@]3(C)[C@H](CC[C@@H]4[C@@]5(C)Cc6cn(C(C)=O)nc6[C@@](C)(COC(C)=O)[C@@H]5CC[C@]43C)[C@@H]12`, the IC50 stood at 37.4 µM with B16 [3]; 33.8 µM with HeLa; 31.5 µM in [4]; 39.1 µM in test [5]; 30.7 µM in test [6].

`C=CCOC(=O)[C@]12CC[C@@H](C(=C)C)[C@@H]1[C@H]1CC[C@@H]3[C@@]4(C)Cc5cn(CC=C)nc5[C@@](C)(CO)[C@@H]4CC[C@@]3(C)[C@]1(C)CC2`: the IC50 came out at 24.9 µM in the test on B16 [3]; 32.1 µM in the test with HeLa; 25.3 µM in test [4]; 33.4 µM in [5]; 38.8 µM in test [6].

With `C=C(C)[C@@H]1CC[C@]2(C(=O)OCc3ccccc3)CC[C@]3(C)[C@H](CC[C@@H]4[C@@]5(C)Cc6c[nH]nc6[C@@](C)(CO)[C@@H]5CC[C@]43C)[C@@H]12`, the IC50 with B16 [3] worked out at 13 µM; in the test on HeLa, 16.1 µM; in test [4], 11.7 µM; in test [5], 20.1 µM; in test [6], 13.9 µM.

Turning to `C=C(C)[C@@H]1CC[C@]2(C(=O)OCC)CC[C@]3(C)[C@H](CC[C@@H]4[C@@]5(C)Cc6c[nH]nc6[C@@](C)(CO)[C@@H]5CC[C@]43C)[C@@H]12`, the IC50 in the test with B16 [3] stood at 16.1 µM; in the test on HeLa, 16.2 µM; in test [4], 13.3 µM; in test [5] it was 21.1 µM; in test [6], 15.2 µM.

Take `C=CCOC(=O)[C@]12CC[C@@H](C(=C)C)[C@@H]1[C@H]1CC[C@@H]3[C@@]4(C)Cc5cn(CC=C)nc5[C@@](C)(COC(C)=O)[C@@H]4CC[C@@]3(C)[C@]1(C)CC2`: the half-inhibitory concentration (IC50) in the test with B16 [3] was 20.1 µM; with HeLa, 27.3 µM; in [4], 22 µM; in test [5] it was 30.8 µM; in [6], 33.5 µM.

With `C=C(C)[C@@H]1CC[C@]2(C(=O)OCC(=O)O)CC[C@]3(C)[C@H](CC[C@@H]4[C@@]5(C)Cc6cn(CC(=O)O)nc6[C@@](C)(CO)[C@@H]5CC[C@]43C)[C@@H]12`, the IC50 in the test on B16 [3] was determined as 36 µM; with HeLa, 50 µM; in test [4], 41.8 µM; in [5] it was 44.8 µM; in [6], 47.6 µM.

`C=C(C)[C@@H]1CC[C@]2(C(=O)OCc3ccccc3)CC[C@]3(C)[C@H](CC[C@@H]4[C@@]5(C)Cc6cn(CC)nc6[C@@](C)(CO)[C@@H]5CC[C@]43C)[C@@H]12`: the IC50 with B16 [3] worked out at 38.2 µM; in the test with HeLa it was 40 µM; in test [4], 39.6 µM; in test [5] it was 40.1 µM; in test [6], 45.8 µM.
